Measurements reported in patent publication US20140030808A1, “Method for Cellular RNA Expression” (BIONTECH AG, priority 2010, published 2014).
Like-named read-outs stand apart in the source and are kept apart here.

System: Primary human foreskin fibroblasts (BJ, CCD1079Sk, HFF)
Type: cell-based
Details: 2 μM; for luciferase expression after transient treatment: BJ and CCD1079SK

## Nc1ncc2[nH]cnc2n1 [2-aminopurine]
7 h incubation period
  luciferase expression after transient treatment: did not results in a significant increase of luciferase expression
24 h treatment
  luciferase expression after transient treatment: rapidly reversed after removal of the inhibitors
48 h treatment
  luciferase expression after transient treatment: less efficient than a permanent treatment
Permanent inhibition
  duration of high luciferase expression levels: 5 days
